The values below come from US9353079B2, “Solid forms of an alpha, omega di-substituted dihydroxy cyclopentyl compound and methods for the preparation and use thereof” (Allergan, Inc., priority 2013, dated 2016).

A short description of the series: Solid-state stability of crystalline forms on storage, XRPD compared before and after. It counts as physicochemical. How it is done: X-Ray powder diffraction patterns (XRPD) were obtained for the crystalline form described herein under the following conditions: • Equipment: Rigaku Smart-Lab • Scan range: 2 to 40° (2θ) • Scan speed: 3° (2θ) per minute • Step width: 0.02° (2θ) • X-ray information: Cu Kα, λ=1.54 Å, 40 kV/44 mA
Approximately 5-10 mg of the sample was gently applied on a low background Si holder and subjected to XRPD scanning.
In addition, another sample of 5-10 milligrams of crystalline Form A was maintained at a temperature of 22±2° C. and relative humidity of 59% for 144 hours.
A sample of 5-10 milligrams of crystalline Form B was maintained at a temperature of 22±2° C. and relative humidity of 59% for 120 hours.
In addition, another sample of 10-50 grams of crystalline Form B was maintained at a temperature of 22±2° C. and relative humidity of 0% for 120 hours.
In addition, a similar sample of crystalline Form B was maintained at a temperature of 40° C. for 16 hours.

As to `NC(=O)CCC/C=C\C[C@@H]1[C@@H](/C=C/[C@@H](O)CCc2cc(Cl)sc2Cl)[C@H](O)C[C@@H]1O` [Form A, 7-[3α,5α-dihydroxy-2-(3α-hydroxy-5-(3-(2,5-dichloro)thienyl)-1E-pentenyl)cyclopentyl]-5Z-heptenamide], the “change of XRPD pattern / crystal form after storage” value is, setting by setting: (22±2° C., relative humidity 0%, 144 hours) “remained substantially unchanged”; (22±2° C., relative humidity 59%, 144 hours) “a substantial portion of crystalline Form A had converted to crystalline Form B”; (40° C., 25 minutes) “lack of significant change”.

`NC(=O)CCC/C=C\C[C@@H]1[C@@H](/C=C/[C@@H](O)CCc2cc(Cl)sc2Cl)[C@H](O)C[C@@H]1O` [Form B, 7-[3α,5α-dihydroxy-2-(3α-hydroxy-5-(3-(2,5-dichloro)thienyl)-1E-pentenyl)cyclopentyl]-5Z-heptenamide]: the “change of XRPD pattern / crystal form after storage” value is “poorly-crystalline mixture of Forms A and B” (22±2° C., relative humidity 0%, 120 hours); “remained substantially unchanged” (22±2° C., relative humidity 59%, 120 hours); “a substantial portion of crystalline Form B had converted to the amorphous form” (40° C., 16 hours).
